The values that follow come from ChEMBL document CHEMBL4715719, “Synthesis and biological properties of polyamine modified flavonoids as hepatocellular carcinoma inhibitors” (Eur J Med Chem, 2016).

Broadly, the inhibition is the percentage by which the read-out fell short of the control. In general, inhibition in vivo refers to the share of the control response that was lost under treatment. By IC50 is commonly meant the concentration that gives 50% inhibition.

The subject of data set [1] is SMMC-7721. In words: Antiproliferative activity against human […] cells assessed as inhibition of cell proliferation at 100 uM measured after 48 hrs by MTT assay relative to control. Type of data set: functional. On the technique in general: Tetrazolium dyes change colour on reduction, which living cells bring about.
Data set [2] deals with HepG2. Description: Antimigratory activity against human HepG2 cells assessed as inhibition of cell migration at 50 to 70 uM in presence of aspirin measured after 48 hrs by transwell assay. Type of data set: functional, cell-based. The note with it: dose 50-70 µM.
The subject of data set [3] is HepG2. In words: Induction of mitochondrial membrane potential loss in human HepG2 cells after 48 hrs by Rh123 staining based assay. Type of data set: functional, cell-based. The note with it: dose 50-70 µM.
For data set [4], the system named is HepG2. In words: Induction of lysosomal impairment in human HepG2 cells after 48 hrs by Lyso-tracker Red staining based assay. Type of data set: functional, cell-based. The note with it: dose 50-70 µM.
Data set [5] deals with HepG2. In words: Induction of ROS generation in human HepG2 cells after 48 hrs by DCFH-DA staining based assay. Particulars: dose 50-70 µM. The class given is functional, cell-based.
The test system of data set [6] is H22. In words: Antitumor activity against mouse H22 cells implanted in Kunming mouse assessed as reduction in tumor weight at 10 mg/kg, iv administered for 7 consecutive days starting from day 8 post inoculation and measured after 16 days (reference value: 2.15 +/- 0.51 g). Type of data set: functional. The note with it: time 8 day.
In data set [7] the test system is H22. In words: Potentiation of aspirin-induced antitumor activity against mouse H22 cells implanted in Kunming mouse assessed as reduction in tumor weight at 10 mg/kg, iv administered for 7 consecutive days starting from day 8 post inoculation cotreated with aspirin at 10 mg/kg and measured after 16 days (reference value: 1.37 +/- 0.60 g). Type of data set: functional. The note with it: time 8 day.

A short description of data set [8]: Toxicity in Kunming mouse implanted with mouse H22 cells assessed as change in mouse body weight at 10 mg/kg, iv administered for 7 consecutive days starting from day 8 post inoculation cotreated with DFMO at 200 mg/kg and measured after 16 days (reference value: 16.2 %). Type of data set: organism-based. Particulars: in vivo, 192 h, time 8 day.
Data set [9] in a line: Toxicity in Kunming mouse implanted with mouse H22 cells assessed as change in mouse body weight at 10 mg/kg, iv administered for 7 consecutive days starting from day 8 post inoculation cotreated with aspirin at 10 mg/kg and measured after 16 days (reference value: 16.7 %). The note with it: in vivo, 192 h, time 8 day. Type of data set: organism-based.
Data set [10] concerns H22. Description: Potentiation of DFMO-induced antimetastatic activity against mouse H22 cells implanted in Kunming mouse assessed as inhibition of metastasis at 10 mg/kg, iv administered for 7 consecutive days starting from day 11 post inoculation cotreated with DFMO at 200 mg/kg and measured after 18 days relative to control. The note with it: 192 h, time 8 day. The class given is functional.

The test system of data set [11] is H22. Description: Potentiation of aspirin-induced antimetastatic activity against mouse H22 cells implanted in Kunming mouse assessed as inhibition of metastasis at 10 mg/kg, iv administered for 7 consecutive days starting from day 11 post inoculation cotreated with aspirin at 10 mg/kg and measured after 18 days relative to control. The note with it: 192 h, time 8 day. The class given is functional.

Data set [12] in a line: Toxicity in Kunming mouse implanted with mouse H22 cells assessed as change in body weight at 10 mg/kg, iv administered for 7 consecutive days starting from day 11 post inoculation cotreated with DFMO at 200 mg/kg and measured after 18 days (reference value: -0.3 %). The class given is organism-based. The note with it: in vivo, 192 h, time 8 day.
Data set [13] relates to Mus musculus. Description: Upregulation of phosphorylated p38 in Kunming mouse implanted with mouse H22 cells assessed as activation of p53 measured after 48 hrs by immunofluorescence analysis. The class given is functional. Particulars: dose 10-30 µM.
In data set [14] the test system is Mus musculus. Description: Upregulation of phosphorylated JNK in Kunming mouse implanted with mouse H22 cells assessed as activation of p53 measured after 48 hrs by immunofluorescence analysis. Type of data set: functional. Particulars: dose 10-30 µM.
Data set [15] deals with HepG2. Description: Antiproliferative activity against human HepG2 cells assessed as inhibition of cell proliferation measured after 48 hrs in presence of 800 uM aspirin by MTT assay. The class given is functional, cell-based. Particulars: HepG2, 48 h.
Data set [16] in a line: Antiproliferative activity against mouse H22 cells assessed as inhibition of cell proliferation measured after 48 hrs in presence of 800 uM aspirin by MTT assay. The class given is functional, cell-based.
A short description of data set [17]: Toxicity in Kunming mouse implanted with mouse H22 cells assessed as mouse mortality at 10 mg/kg, iv administered for 7 consecutive days starting from day 8 post inoculation cotreated with aspirin at 10 mg/kg and measured after 16 days. Type of data set: organism-based. Particulars: in vivo, 192 h, time 8 day.

Active and inactive are the calls of the source. The calls are words filed in the database; no cut-off is given here.

In the case of `Cl.Cl.NCCCNCC(=O)NCc1cccc2c(=O)cc(-c3cccc4ccccc34)oc12`, the inhibition at 100 µM in data set [1] stood at 87.1%. The inhibition result in [2] is “Active”. In addition, the Activity result in [3] was “Dose-dependent effect”; in [4] it was “Dose-dependent effect”; in data set [5] it was “Dose-dependent effect”; in data set [6] it was 1.3 g; in data set [7], 0.66 g; in [8] it was 16.7%. Further, the Activity was 19.4% in data set [9]; 1.2% in [12]; “Dose-dependent effect” in [13]; “Dose-dependent effect” in [14]; “Non-Toxic” in data set [17]. Further, the values for the inhibition in vivo at 10 mg/kg in data set [10] and in data set [11] were 48.9% and 59.9%, respectively. Further, the IC50 in data set [15] was found to be 59.2 µM; in [16], 21.1 µM.
